For 14 molecules, melting point, IC50 and Kd results are on record in patent US8802866B2, “Pyridinylimidazolone derivatives for the inhibition of PI3 kinases” (Merck Patent GmbH, priority 2009, dated 2014).

The target in one data set is PI3Kalpha (Homo sapiens, UniProt P42336). Nature of the data set: Biochemical PI3Kalpha assay (neomycin SPA, lipid phosphorylation). To be noted: human recombinant GST-PI3K. The method in brief:
(§1)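 Recombinant PI3K incubated with lipid substrate and radioactive ATP for 120 min at room temperature with gentle stirring, then stopped with neomycin-coated PVT-SPA beads, ATP 60 mM and EDTA 6.2 mM in PBS. After 60 min bead binding and centrifugation, radioactive Ptdlns(3)P counted by scintillation.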

Data set [1] addresses recombinant PI3Kalpha (shortened form of the catalytic subunit) (Homo sapiens, UniProt P42336). Nature of the data set: BIACORE PI3K binding assay (SPR). The conditions noted are these: 25° C. The method in brief: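 Contact time was 180 s and dissociation 240 s, in HEPES pH 7.40 buffer with 2% DMSO. Solvent-corrected, double-referenced data were fitted to a 1:1 model with mass transport.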

For another data set, the target named is PI3Kbeta (Homo sapiens, UniProt P42338). As to the kind of experiment: Biochemical PI3Kbeta assay (neomycin SPA, lipid phosphorylation). To be noted: human recombinant GST-PI3K. The procedure, abridged:
as §1

The target in another data set is DNA-PK protein complex (Homo sapiens, UniProt P78527). Nature of the data set: Biochemical DNA-PK assay (FlashPlate). The method in brief:
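Streptavidin-coated FlashPlate radiometric kinase assay, stopped with 200 mM EDTA, then wells washed with 0.9% NaCl and bound radioactivity counted. Blank (non-specific reaction) defined with a proprietary kinase inhibitor at 10 μM.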

The subject of data set [2] is PI3K-dependent phosphorylation of PKB at Serin 473 in PC3 cells. Nature of the data set: Cellular PI3K assay (P-S473-PKB Luminex assay in PC3 cells). It is filed as cell-based. To be noted: Homo sapiens, PC-3, 0.5 h; PC3 cells, 30 min, serum-free, P-S473-PKB; read-out: IC50 (cell). The procedure, abridged:
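PC3 cells were exposed for 30 min under serum-free conditions to 7 concentrations of compound, then lysed. Lysates were captured overnight at 4°C on anti-total-PKB Luminex beads and detected with P-S473-PKB antibody plus PE-labelled secondary.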

The next data set deals with T1, mTOR (Homo sapiens, UniProt P42345).
T1 construct: purchased Millipore 14-770
Nature of the data set: Biochemical mTOR assay (Millipore mTOR assay kit). The protocol: The biochemical mTOR assay was carried out by the method described in the Millipore mTOR assay kit (catalogue number 14-770).

T1 sequence (P42345 1362-2549 limits assumed): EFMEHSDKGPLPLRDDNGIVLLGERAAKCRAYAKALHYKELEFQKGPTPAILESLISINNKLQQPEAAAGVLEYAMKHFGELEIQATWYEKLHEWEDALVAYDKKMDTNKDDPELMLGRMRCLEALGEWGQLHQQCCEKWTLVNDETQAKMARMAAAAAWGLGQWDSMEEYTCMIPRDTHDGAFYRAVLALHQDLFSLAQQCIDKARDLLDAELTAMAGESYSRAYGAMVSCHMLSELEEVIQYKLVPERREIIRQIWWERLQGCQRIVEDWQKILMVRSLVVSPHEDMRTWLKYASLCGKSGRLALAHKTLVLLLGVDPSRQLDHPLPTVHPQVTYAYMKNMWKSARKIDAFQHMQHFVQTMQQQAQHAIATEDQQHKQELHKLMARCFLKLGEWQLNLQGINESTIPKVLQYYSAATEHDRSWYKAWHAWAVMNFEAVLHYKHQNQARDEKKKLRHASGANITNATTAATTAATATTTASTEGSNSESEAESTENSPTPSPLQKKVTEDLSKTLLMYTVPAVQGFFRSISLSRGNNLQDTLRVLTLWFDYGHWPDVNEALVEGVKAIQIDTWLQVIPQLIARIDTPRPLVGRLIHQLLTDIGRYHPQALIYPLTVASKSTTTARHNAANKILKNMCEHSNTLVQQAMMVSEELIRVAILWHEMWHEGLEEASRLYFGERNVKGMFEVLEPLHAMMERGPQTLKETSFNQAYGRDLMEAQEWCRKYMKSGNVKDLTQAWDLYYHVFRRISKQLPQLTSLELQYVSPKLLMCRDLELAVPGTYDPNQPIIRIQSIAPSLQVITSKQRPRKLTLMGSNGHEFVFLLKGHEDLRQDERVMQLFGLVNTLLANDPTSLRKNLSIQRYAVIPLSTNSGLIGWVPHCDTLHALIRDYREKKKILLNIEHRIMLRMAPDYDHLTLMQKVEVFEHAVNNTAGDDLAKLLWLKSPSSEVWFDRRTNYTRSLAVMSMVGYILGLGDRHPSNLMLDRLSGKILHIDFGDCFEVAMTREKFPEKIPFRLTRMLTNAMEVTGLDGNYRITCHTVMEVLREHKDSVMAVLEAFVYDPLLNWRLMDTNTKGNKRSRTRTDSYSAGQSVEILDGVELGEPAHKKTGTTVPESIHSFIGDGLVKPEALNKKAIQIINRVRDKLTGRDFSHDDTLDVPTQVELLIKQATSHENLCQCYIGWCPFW
Sequence of PI3Kalpha (P42336 whole entry): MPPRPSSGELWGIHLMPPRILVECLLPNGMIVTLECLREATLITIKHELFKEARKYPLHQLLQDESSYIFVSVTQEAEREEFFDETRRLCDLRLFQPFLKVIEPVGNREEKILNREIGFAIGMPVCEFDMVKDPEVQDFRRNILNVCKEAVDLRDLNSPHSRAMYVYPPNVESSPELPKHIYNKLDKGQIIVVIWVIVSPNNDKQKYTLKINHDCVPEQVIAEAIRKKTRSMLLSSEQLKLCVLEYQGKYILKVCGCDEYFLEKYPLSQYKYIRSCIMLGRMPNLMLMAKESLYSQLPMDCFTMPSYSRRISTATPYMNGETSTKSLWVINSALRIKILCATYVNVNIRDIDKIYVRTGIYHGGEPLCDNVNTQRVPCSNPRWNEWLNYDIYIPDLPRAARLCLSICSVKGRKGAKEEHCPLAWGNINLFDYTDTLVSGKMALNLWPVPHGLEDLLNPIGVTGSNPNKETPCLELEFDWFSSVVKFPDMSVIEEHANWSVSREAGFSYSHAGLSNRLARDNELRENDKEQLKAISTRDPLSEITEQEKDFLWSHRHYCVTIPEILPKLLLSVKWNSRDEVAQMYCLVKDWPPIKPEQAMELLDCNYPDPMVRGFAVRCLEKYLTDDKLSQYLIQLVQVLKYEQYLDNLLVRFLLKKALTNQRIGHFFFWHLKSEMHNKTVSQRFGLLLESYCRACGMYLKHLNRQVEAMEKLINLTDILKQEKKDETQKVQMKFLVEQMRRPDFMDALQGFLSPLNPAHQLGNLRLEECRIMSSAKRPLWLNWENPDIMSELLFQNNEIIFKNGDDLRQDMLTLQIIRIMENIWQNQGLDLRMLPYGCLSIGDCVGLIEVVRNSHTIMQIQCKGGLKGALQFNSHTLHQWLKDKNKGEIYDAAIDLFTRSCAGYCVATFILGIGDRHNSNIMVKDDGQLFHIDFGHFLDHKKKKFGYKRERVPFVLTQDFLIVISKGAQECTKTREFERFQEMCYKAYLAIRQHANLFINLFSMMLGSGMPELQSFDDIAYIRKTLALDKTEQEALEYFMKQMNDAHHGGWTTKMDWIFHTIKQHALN
Sequence of PI3Kalpha (P27986 whole entry partner): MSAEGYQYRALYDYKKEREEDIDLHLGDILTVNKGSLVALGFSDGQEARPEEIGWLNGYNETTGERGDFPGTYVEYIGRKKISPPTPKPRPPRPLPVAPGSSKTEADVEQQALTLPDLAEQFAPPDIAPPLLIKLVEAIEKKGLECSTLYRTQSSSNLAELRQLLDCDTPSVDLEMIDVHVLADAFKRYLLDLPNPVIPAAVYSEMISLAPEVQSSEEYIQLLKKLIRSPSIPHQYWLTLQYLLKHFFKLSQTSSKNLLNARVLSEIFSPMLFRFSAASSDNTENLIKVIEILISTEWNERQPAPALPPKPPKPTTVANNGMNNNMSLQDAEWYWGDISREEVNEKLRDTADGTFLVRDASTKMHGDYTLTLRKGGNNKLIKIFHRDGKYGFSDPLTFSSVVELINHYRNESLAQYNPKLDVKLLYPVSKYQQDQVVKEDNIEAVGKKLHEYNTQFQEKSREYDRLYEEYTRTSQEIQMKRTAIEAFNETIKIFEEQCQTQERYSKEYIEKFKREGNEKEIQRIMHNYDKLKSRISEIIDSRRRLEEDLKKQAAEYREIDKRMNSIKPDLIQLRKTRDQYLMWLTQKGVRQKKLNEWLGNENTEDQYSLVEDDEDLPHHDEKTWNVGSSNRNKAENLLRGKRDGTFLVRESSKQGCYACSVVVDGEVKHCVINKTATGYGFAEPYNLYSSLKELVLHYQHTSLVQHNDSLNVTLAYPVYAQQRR
Sequence of recombinant PI3Kalpha (shortened form of the catalytic subunit) (P42336 151-1068 limits assumed): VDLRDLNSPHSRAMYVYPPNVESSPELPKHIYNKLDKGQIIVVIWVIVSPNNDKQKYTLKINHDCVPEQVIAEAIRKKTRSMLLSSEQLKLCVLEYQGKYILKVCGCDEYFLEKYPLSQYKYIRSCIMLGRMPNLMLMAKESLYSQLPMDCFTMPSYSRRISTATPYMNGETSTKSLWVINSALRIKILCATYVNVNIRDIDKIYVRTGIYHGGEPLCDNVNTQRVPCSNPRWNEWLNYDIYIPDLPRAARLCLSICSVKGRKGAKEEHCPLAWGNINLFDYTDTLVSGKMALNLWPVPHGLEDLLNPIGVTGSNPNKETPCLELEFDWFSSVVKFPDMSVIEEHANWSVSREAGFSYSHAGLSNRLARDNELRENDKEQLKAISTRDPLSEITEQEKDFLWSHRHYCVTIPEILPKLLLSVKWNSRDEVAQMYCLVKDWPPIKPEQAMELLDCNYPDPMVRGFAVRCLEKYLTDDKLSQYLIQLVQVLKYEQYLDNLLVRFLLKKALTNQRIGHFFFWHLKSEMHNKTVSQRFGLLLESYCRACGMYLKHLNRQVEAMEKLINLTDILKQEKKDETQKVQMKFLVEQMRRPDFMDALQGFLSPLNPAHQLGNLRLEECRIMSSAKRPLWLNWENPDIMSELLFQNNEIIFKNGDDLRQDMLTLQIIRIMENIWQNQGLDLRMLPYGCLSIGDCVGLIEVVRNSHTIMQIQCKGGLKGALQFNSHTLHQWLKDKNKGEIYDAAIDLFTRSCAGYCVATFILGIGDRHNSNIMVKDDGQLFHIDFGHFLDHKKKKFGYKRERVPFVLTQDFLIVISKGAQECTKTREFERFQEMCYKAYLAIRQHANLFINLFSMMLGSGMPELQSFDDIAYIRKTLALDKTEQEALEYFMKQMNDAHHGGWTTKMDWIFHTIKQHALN
Sequence of PI3Kbeta (P42338 whole entry): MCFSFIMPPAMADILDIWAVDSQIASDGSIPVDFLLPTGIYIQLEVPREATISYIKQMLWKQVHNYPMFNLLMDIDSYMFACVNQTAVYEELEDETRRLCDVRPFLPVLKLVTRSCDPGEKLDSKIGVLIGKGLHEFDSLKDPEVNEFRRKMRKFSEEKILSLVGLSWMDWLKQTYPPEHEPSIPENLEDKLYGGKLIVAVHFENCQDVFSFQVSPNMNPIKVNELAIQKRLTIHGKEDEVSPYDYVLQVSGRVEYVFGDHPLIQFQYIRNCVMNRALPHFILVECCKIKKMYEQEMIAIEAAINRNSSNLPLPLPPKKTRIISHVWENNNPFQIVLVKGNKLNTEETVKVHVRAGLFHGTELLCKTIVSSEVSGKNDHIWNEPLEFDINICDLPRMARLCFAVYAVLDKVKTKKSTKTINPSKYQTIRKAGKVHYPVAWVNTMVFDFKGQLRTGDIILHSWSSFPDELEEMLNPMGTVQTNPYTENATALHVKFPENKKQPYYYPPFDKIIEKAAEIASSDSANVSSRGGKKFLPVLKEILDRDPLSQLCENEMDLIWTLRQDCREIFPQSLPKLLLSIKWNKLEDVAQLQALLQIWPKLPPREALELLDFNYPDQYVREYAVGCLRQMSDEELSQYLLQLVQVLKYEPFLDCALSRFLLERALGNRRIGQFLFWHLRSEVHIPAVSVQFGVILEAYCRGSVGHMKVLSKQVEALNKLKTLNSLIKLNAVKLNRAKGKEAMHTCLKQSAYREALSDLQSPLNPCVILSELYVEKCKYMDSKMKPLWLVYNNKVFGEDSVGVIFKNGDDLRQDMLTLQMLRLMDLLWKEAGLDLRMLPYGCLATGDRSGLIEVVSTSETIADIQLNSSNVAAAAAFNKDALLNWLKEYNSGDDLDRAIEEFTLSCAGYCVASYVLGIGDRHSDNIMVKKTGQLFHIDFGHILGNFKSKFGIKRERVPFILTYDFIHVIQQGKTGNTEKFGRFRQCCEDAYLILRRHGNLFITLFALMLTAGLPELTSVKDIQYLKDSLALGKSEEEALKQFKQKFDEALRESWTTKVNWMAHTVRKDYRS
Sequence of PI3Kbeta (P27986 whole entry partner): as the sequence (P27986 whole entry partner) above

The term melting point denotes the temperature of the solid-liquid transition. As usually defined, the IC50 is the midpoint of a concentration-inhibition curve. In general, Kd refers to the constant that tells how readily two partners part at equilibrium. Molecule `O=c1[nH]cc(-c2cc(-c3cnc4ccccc4c3)ccn2)n1-c1ccc(N2CCNCC2)c(C(F)(F)F)c1` [Example A5, 1-(4-piperazin-1-yl-3-trifluoromethylphenyl)-5-(4-quinolin-3-ylpyridin-2-yl)-1,3-dihydroimidazol-2-one] gave a melting point of 155 °C. Moreover, the 50% inhibitory concentration (IC50) at PI3Kalpha lay in the range of 100 to 10000 nM. The Kd in data set [1] lay within 100 to 10000 nM. Also, at PI3Kbeta, the half-inhibitory concentration (IC50) fell in the range of 100 to 10000 nM. Further, the 50% inhibitory concentration (IC50) against DNA-PK protein complex lay in the range of 100 to 10000 nM. The 50% inhibitory concentration (IC50) in data set [2] was 100 to 10000 nM.

Regarding `COc1cc(-c2ccnc(-c3cn(C)c(=O)n3-c3ccc(C(C)(C)C#N)cc3)c2)ccn1` [Example A6, 2-{4-[5-(2′-Methoxy-[4,4′]bipyridinyl-2-yl)-3-methyl-2-oxo-2,3-dihydroimidazol-1-yl]phenyl}-2-methylpropionitrile], the melting point came to 138 °C. Further, the IC50 on PI3Kalpha was 100 to 10000 nM. Moreover, in data set [1], the dissociation constant Kd is 100 to 10000 nM. Besides, the IC50 at PI3Kbeta fell in the range of 100 to 10000 nM. At DNA-PK protein complex, the IC50 is 100 to 10000 nM. For the same molecule, in data set [2], the IC50 was greater than 10000 nM.

Molecule `Cc1nc2cc(-c3ccnc(-c4cn(C)c(=O)n4-c4ccc(C(C)(C)C#N)cc4)c3)cnc2[nH]1` [Example A7, 2-Methyl-2-(4-{3-methyl-5-[4-(2-methyl-3H-imidazo[4,5-b]pyridin-6-yl)pyridin-2-yl]-2-oxo-2,3-dihydroimidazol-1-yl}phenyl)propionitrile] gave a melting point of 288 °C. Further, at PI3Kalpha, the IC50 is 0.1 to 100 nM. In data set [1], the dissociation constant Kd was 0.1 to 100 nM. The half-inhibitory concentration (IC50) at PI3Kbeta was 100 to 10000 nM. On DNA-PK protein complex, this molecule displayed an IC50 of 100 to 10000 nM. Further, in data set [2], the half-inhibitory concentration (IC50) was 100 to 10000 nM.

Molecule `Cn1cc(-c2cc(-c3ccc(N)nc3)ccn2)n(-c2ccc(C(C)(C)C#N)cc2)c1=O` [Example A8, 2-{4-[5-(6-Amino-[3,4′]bipyridinyl-2′-yl)-3-methyl-2-oxo-2,3-dihydroimidazol-1-yl]phenyl}-2-methylpropionitrile] came in with a melting point of 252 °C. The IC50 on PI3Kalpha fell in the range of 0.1 to 100 nM. Further, in data set [1], the Kd is 0.1 to 100 nM. Further, on PI3Kbeta, the IC50 lay in the range of 100 to 10000 nM. On DNA-PK protein complex, this molecule came in with a 50% inhibitory concentration (IC50) of 100 to 10000 nM. Also, the concentration for half-maximal inhibition (IC50) in data set [2] lay within 100 to 10000 nM.

In turn, `Cn1cc(-c2cc(-c3cccnc3)ccn2)n(-c2ccc(C(C)(C)C#N)cc2)c1=O` [Example A10, 2-[4-(5-[3,4′]Bipyridinyl-2′-yl-3-methyl-2-oxo-2,3-dihydroimidazol-1-yl)phenyl]-2-methylpropionitrile] yielded a melting point of 180 °C. Further, the IC50 on PI3Kalpha is 100 to 10000 nM. Also, in data set [1], the Kd was in the range of 100 to 10000 nM. The concentration for half-maximal inhibition (IC50) at PI3Kbeta was in the range of 100 to 10000 nM. Further, the IC50 against DNA-PK protein complex lay in the range of 0.1 to 100 nM. The 50% inhibitory concentration (IC50) in data set [2] was greater than 10000 nM.

In turn, `Cn1cc(-c2cc(-c3ccncc3)ccn2)n(-c2ccc(C(C)(C)C#N)cc2)c1=O` [Example A11, 2-[4-(5-[4,4′]Bipyridinyl-2-yl-3-methyl-2-oxo-2,3-dihydroimidazol-1-yl)phenyl]-2-methylpropionitrile] came in with a melting point of 226 °C. In addition, on PI3Kalpha, the IC50 fell in the range of 100 to 10000 nM. In addition, at PI3Kbeta, the IC50 is greater than 10000 nM. The molecule further registered an IC50 against DNA-PK protein complex of 0.1 to 100 nM. The IC50 in data set [2] was greater than 10000 nM.

In the case of `Cn1cc(-c2cc(-c3cnc4ccccc4c3)ccn2)n(-c2ccc(C(C)(C)CN)cc2)c1=O` [Example A30, 3-[4-(2-Amino-1,1-dimethylethyl)phenyl]-1-methyl-4-(4-quinolin-3-ylpyridin-2-yl)-1,3-dihydroimidazol-2-one], the melting point is 132 °C. The 50% inhibitory concentration (IC50) at PI3Kalpha was in the range of 100 to 10000 nM. The IC50 on PI3Kbeta is greater than 10000 nM. The same molecule displayed a half-inhibitory concentration (IC50) against DNA-PK protein complex of 100 to 10000 nM. The IC50 in data set [2] was greater than 10000 nM.

In the case of `Cn1cc(-c2cc(-c3cnc4c(c3)CCC(=O)N4)ccn2)n(-c2ccc(C(C)(C)C#N)cc2)c1=O` [Example A45, 2-Methyl-2-(4-{3-methyl-2-oxo-5-[4-(7-oxo-5,6,7,8-tetrahydro-[1,8]naphthyridin-3-yl)pyridin-2-yl]-2,3-dihydroimidazol-1-yl}phenyl)propionitrile], the melting point came to 284 °C. Moreover, the half-maximal inhibitory concentration (IC50) at PI3Kalpha was in the range of 0.1 to 100 nM. The IC50 at PI3Kbeta fell in the range of 100 to 10000 nM. The 50% inhibitory concentration (IC50) against DNA-PK protein complex lay within 0.1 to 100 nM. Moreover, the IC50 in data set [2] lay within 100 to 10000 nM.

As to `CN1CCN(c2ccc(-n3c(-c4cc(-c5cnc6[nH]c(C(F)(F)F)cc6c5)ccn4)cn(C)c3=O)cc2C(F)(F)F)CC1` [Example A87, 1-Methyl-3-[4-(4-methylpiperazin-1-yl)-3-trifluoromethylphenyl]-4-[4-(2-trifluoro-methyl-1H-pyrrolo[2,3-b]pyridin-5-yl)pyridin-2-yl]-1,3-dihydroimidazol-2-one], the IC50 on PI3Kalpha lay in the range of 100 to 10000 nM; at PI3Kbeta, 100 to 10000 nM; on DNA-PK protein complex, 0.1 to 100 nM; on mTOR, 100 to 10000 nM; in data set [2] it was 100 to 10000 nM. For the same molecule, the Kd in data set [1] was in the range of 100 to 10000 nM.

In the case of `Cn1cc(-c2cc(-c3ccc4ncncc4c3)ccn2)n(-c2ccc(C(C)(C)C#N)cc2)c1=O` [Example A91, 2-Methyl-2-{4-[3-methyl-2-oxo-5-(4-quinazolin-6-ylpyridin-2-yl)-2,3-dihydro-imidazol-1-yl]phenyl}propionitrile], the IC50 at PI3Kalpha was 100 to 10000 nM; on PI3Kbeta it was greater than 10000 nM; against DNA-PK protein complex it was 0.1 to 100 nM; against mTOR it was 100 to 10000 nM; in data set [2], greater than 10000 nM. Also, the Kd in data set [1] fell in the range of 100 to 10000 nM.

As for `Cn1cc(-c2cc(-c3cnc4[nH]c(C(C)(C)C)cc4c3)ccn2)n(-c2ccc(C(C)(C)C#N)cc2)c1=O` [Example A92, 2-(4-{5-[4-(2-tert-Butyl-1H-pyrrolo[2,3-b]pyridin-5-yl)pyridin-2-yl]-3-methyl-2-oxo-2,3-dihydroimidazol-1-yl}phenyl)-2-methylpropionitrile], the IC50 at PI3Kalpha was 100 to 10000 nM; on PI3Kbeta it was 100 to 10000 nM; against DNA-PK protein complex, 0.1 to 100 nM; at mTOR, 100 to 10000 nM; in data set [2], greater than 10000 nM. Also, the Kd in data set [1] was 100 to 10000 nM.

As to `Cn1cc(-c2cc(-c3ccc(N)c(C(F)(F)F)c3)ccn2)n(-c2ccc(C(C)(C)C#N)cc2)c1=O` [Example A93, 2-(4-{5-[4-(4-Amino-3-trifluoromethylphenyl)pyridin-2-yl]-3-methyl-2-oxo-2,3-dihydroimidazol-1-yl}phenyl)-2-methylpropionitrile], the concentration for half-maximal inhibition (IC50) was 100 to 10000 nM on PI3Kalpha; 100 to 10000 nM at PI3Kbeta; 0.1 to 100 nM against DNA-PK protein complex; 100 to 10000 nM on mTOR; 100 to 10000 nM in data set [2]. Moreover, the Kd in data set [1] was in the range of 0.1 to 100 nM.

Turning to `Cn1cc(-c2cc(-c3cnc4[nH]ccc4c3)ccn2)n(-c2cc(F)cc(C#N)c2)c1=O` [Example A96, 3-Fluoro-5-{3-methyl-2-oxo-5-[4-(1H-pyrrolo[2,3-b]pyridin-5-yl)pyridin-2-yl]-2,3-dihydroimidazol-1-yl}benzonitrile], the IC50 is 100 to 10000 nM on PI3Kalpha; 100 to 10000 nM at PI3Kbeta; 0.1 to 100 nM against DNA-PK protein complex; 100 to 10000 nM against mTOR; 100 to 10000 nM in data set [2]. For the same molecule, in data set [1], the dissociation constant Kd is 100 to 10000 nM.

Take `Cn1cc(-c2cc(-c3cnc4[nH]cc(F)c4c3)ccn2)n(-c2ccc(F)c(C(F)(F)F)c2)c1=O` [Example A105, 4-[4-(3-Fluoro-1H-pyrrolo[2,3-b]pyridin-5-yl)pyridin-2-yl]-3-(4-fluoro-3-trifluoro-methylphenyl)-1-methyl-1,3-dihydroimidazol-2-one]: the melting point stood at 268 °C. For the same molecule, the concentration for half-maximal inhibition (IC50) against DNA-PK protein complex is 100 to 10000 nM. Besides, the concentration for half-maximal inhibition (IC50) in data set [2] lay in the range of 100 to 10000 nM.
